The test system of assay [1] is CGN-induced mouse paw edema. As to the kind of experiment: λ-Carrageenan (CGN)-induced mouse paw edema. Type of assay: in vivo. The settings on record: for Paw volume increased: 5 h after CGN, mean ± SD. On the procedure: Mouse CGN-induced paw edema assay was performed to measure an anti-inflammatory activity according to a slightly modified method disclosed in Winter et al. (1962). […] If the volume was greater than that before the addition of CGN, it was deemed that edema developed. The test material was dissolved in a mixture including DMSO and water at a mixture ratio of 1:1 and then was orally administered. A volume of a negative control group which was not treated with CGN was 0.149±0.025 ml.
(In general: In the carrageenan paw model, swelling and tenderness develop within hours.)

For assay [2], the system named is AA-induced mouse ear edema. The assay is described as follows: Arachidonic acid (AA)-induced mouse ear edema. Format: in vivo. As to conditions: 20 mg/kg oral. As to the method:
AA-induced mouse ear edema assay was used to identify an anti-inflammatory activity in vivo in anti-inflammatory animal model. According to a method disclosed in Kim et al. (1993), 2% AA acetone solution was applied to an ear of a mouse (20 μl/ear), and after one hour, a thickness of the ear was measured using a dial thickness gauge (Mitutoyo, Japan). One hour before the AA treatment, a test material dissolved in a mixture including DMSO and water at a mixture ratio of 1:1 was orally administered to the mouse (0.1 ml/mouse).

Another assay addresses T1, 5-LOX (Rattus norvegicus, UniProt P12527).
T1 construct: RBL-1 cells obtained from American Type Culture Collection; endogenous in cells; host or cells: RBL-1 (rat basophilic leukemia) cells, ATCC
T1 sequence (P12527 1-673): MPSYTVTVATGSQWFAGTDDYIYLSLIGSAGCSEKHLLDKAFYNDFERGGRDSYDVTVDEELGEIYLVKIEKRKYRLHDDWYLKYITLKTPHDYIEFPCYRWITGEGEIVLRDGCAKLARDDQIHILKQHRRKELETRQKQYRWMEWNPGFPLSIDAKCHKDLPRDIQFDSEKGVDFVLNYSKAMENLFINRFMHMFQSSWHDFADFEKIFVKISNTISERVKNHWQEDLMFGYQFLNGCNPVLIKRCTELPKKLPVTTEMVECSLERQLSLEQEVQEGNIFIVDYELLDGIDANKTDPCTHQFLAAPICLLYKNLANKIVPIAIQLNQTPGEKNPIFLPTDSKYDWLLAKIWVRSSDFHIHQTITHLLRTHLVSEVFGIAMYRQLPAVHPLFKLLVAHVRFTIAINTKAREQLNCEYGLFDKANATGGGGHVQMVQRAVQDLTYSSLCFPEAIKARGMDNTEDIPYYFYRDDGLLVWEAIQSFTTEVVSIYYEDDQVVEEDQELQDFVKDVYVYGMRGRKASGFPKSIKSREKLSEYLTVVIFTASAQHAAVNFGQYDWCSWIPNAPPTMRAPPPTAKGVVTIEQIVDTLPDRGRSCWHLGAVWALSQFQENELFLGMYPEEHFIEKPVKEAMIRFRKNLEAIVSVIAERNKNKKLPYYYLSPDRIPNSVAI
The assay is described as follows: 5-LOX-mediated cysteinyl leukotriene (LTC4/D4/E4) production in A23187-treated RBL-1 cells. Format: cell-based. The settings on record: 1 nM, read-out: 5-LOX inhibitory activity. As to the method:
The cells were placed on 96-well plates for 2 hours, and incubated in advance with a test material for 10 minutes. The test material was dissolved in DMSO and diluted with serum-free DMEM at an appropriate concentration. The final concentration of DMSO was adjusted to be 0.1% (v/v). […] A medium used was collected and a concentration of cysteinyl leukotrienes (LTC4/D4/E4) produced by 5-LOX was measured using an ELISA kit (Cayman Chem.) according to a method recommended by the manufacturer.
It is known that when RBL-1 cells are activated by A23187 (calcium ionophore), a great amount of cysteinyl-LTs is generated by 5-LOX.

Assay [3] deals with acetic acid-induced writhing. As to the kind of experiment: Acetic acid-induced writhing test on mice. Type of assay: in vivo, mouse. As to conditions: for Numbers of writhings: mean ± SD. As to the method: In order to measure an antinociceptive activity, 1% acetic acid (100 μl) was intraperitoneally injected to a mouse. 10 minutes after the injection of the acetic acid, the number of writhings was counted for 10 minutes. Before the injection of the acetic acid, a test material dissolved in a mixture including DMSO and water at a ratio of 1:1 was orally administered (0.1 ml/mouse).
Each group consisted of 6 mice. Measurement values were represented by arithmetic mean±SD (a of Table 3). b of Table 3 indicates an inhibitory activity % compared to the control group treated with the acetic acid. * indicates a significant difference of P<0.05 compared to the acetic acid-treated control group.
For orientation: An intraperitoneal irritant provokes the stretching counted in writhing tests.

As for `COc1ccc2c(c1)c(CC(=O)O)c(C)n2C(=O)c1ccc(Cl)cc1` [Indomethacin, indomethacin], in assay [1] (20 mg/kg oral), the “inhibitory activity % compared to the CGN-treated control group (paw edema)” value (“inhibitory activity % … (paw edema)” below) turned out to be 23.7% and the Paw volume increased worked out at 0.116 ± 0.039 mL. In assay [1] (100 mg/kg oral), the “inhibitory activity % … (paw edema)” value stood at 44.7% and the Paw volume increased worked out at 0.084 ± 0.019 mL. The “inhibitory activity % compared to the AA-treated control group (ear edema)” value in assay [2] is recorded as 70%. This compound also displayed an Ear thickness increased in assay [2] (1 h after AA, mean ± SD) of 0.021 ± 0.013 mm.

`CC(Cc1ccc(O)c(O)c1)C(C)Cc1ccc(O)c(O)c1` (stereo not shown) [NDGA, nordihydroguaiaretic acid]: on 5-LOX, the inhibition at 0.001 µM came to 99%.

Consider `C[C@]12C=CC(=O)C=C1CC[C@@H]1[C@@H]2[C@@H](O)C[C@@]2(C)[C@H]1CC[C@]2(O)C(=O)CO` [Prednisolone, prednisolone], for which, in assay [1] (20 mg/kg oral), the “inhibitory activity % … (paw edema)” value was 50.0% and the Paw volume increased was determined as 0.076 ± 0.011 mL.

Regarding `CC(=O)Oc1ccccc1C(=O)O` [Aspirin, aspirin], in assay [3] (Exp. 1, 100 mg/kg oral), the “inhibitory activity % compared to the acetic acid-treated control group (writhings)” value amounted to 60.9% and the Numbers of writhings worked out at 5.7 ± 3.8. Further, in assay [3] (Exp. 2, 100 mg/kg oral), the “inhibitory activity % compared to the acetic acid-treated control group (writhings)” value came out at 46.1% and the Numbers of writhings is listed as 9.6 ± 3.2.

The values above are taken from US20120021011A1, “ANTI-INFLAMMATORY PHARMACEUTICAL COMPOSITION COMPRISING EXTRACTS FROM BROUSSONETIA PAPYRIFERA AND LONICERA JAPONICA” (Knu-Industry Cooperation Foundation, priority 2009, published 2012).
